Test results reported in US4528294A, “Benzoyl-phenyl-piperidine derivatives” (Societe de Recherches Industrielle S.O.R.I., priority 1981, dated 1985).

Key:
mouse = test: Toxicity (LD-50 and LD-0), i.p. route in the mouse; assay type: in vivo
Procedure: (§1) The toxicity (LD-50 and LD-0) was determined by the i.p. route in the mouse according to the technique of S. T. Litchfield described in J. Pharm. Exp. Ther. 96, 99 (1949).

lymphocytes of the mouse = test: Stimulation in vitro of mouse lymphocytes (tritium-marked thymidine incorporation); assay type: cell-based, mouse (DBA/2); conditions: at the optimal concentration; thymidine incorporation in 24 hours with respect to control culture; PHA and PWM
Procedure: Lymphocytes (5×10^5 cells per measurement) extracted from the spleen of inbred mice (DBA/2) are incubated for 36 hours at 37° C. in an atmosphere of oxygen with 5% of CO2 in a culture medium (RPMI 1640) containing:
10% (by weight) of foetal calf serum (100 μl per measurement)
10 μl of a solution of lectins in the proportion of 5 μg/ml of phytohemaglutinine (PHA) and 40 μg/ml of Pokeweed Mitogen (PWM), and
the substance to be tested.
The activity is evaluated by measuring the radio-activity obtained by incorporation in 24 hours of 2 μCi (i.e. 7.4×10^4 becquerels) of tritium-marked thymidine, with respect to a control culture.
The results obtained are grouped together in Table II hereinbelow which gives the optimum concentration of the products in μg/ml, and where symbols +, ++ and +++ signify: […]

[1] = Toxicity (LD-50 and LD-0), i.p. route in the mouse; assay type: in vivo; conditions: in vivo, ip
Procedure: as §1

delayed hypersensitivity = test: Delayed hypersensitivity test; assay type: in vivo; conditions: single dose of 5 mg/kg per os, mouse, three days before sensitization
Excerpt: Furthermore, the product of Example 2 (Code No. 442) was studied according to the delayed hypersensitivity test following the modus operandi described by P. H. Lagrange et al., J. Exp. Med. 139, 1529-1539 (1974).

SMILES	LD-0 (mouse)	Stimulation (lymphocytes of the mouse)	LD50 [1]	reduction of the delayed hypersensitivity (delayed hypersensitivity)
CC1CCN(c2ccc(N)cc2C(=O)c2ccccc2)CC1 [Example 27, [2-(4-methyl-1-piperidinyl)-5-aminophenyl]-phenyl-methanone]	> 800 mg/kg	+ (stimulation of 0 to 50%)	–	–
Cc1ccc(C(=O)c2cc(N)ccc2N2CCC(C)CC2)cc1 [Example 15]	> 800 mg/kg	++ (stimulation of 50% to 100%)	–	–
CC1CCN(c2ccc(N(C)C)cc2C(=O)c2ccc(Cl)cc2)CC1 [Example 5]	> 800 mg/kg	+ (stimulation of 0 to 50%)	–	–
CC1CCN(c2ccc(N)cc2C(=O)c2ccccc2Cl)CC1 [Example 8]	> 800 mg/kg	+ (stimulation of 0 to 50%)	–	–
CC1CCN(c2ccc(Cl)cc2C(=O)c2ccc(Cl)cc2)CC1 [Example 22]	–	+ (stimulation of 0 to 50%)	1800 mg/kg	–
CC1CCN(c2ccc([N+](=O)[O-])cc2C(=O)c2ccc(Cl)cc2)CC1 [Example 1, [2-(4-methyl-1-piperidinyl)-5-nitrophenyl]-(4-chlorophenyl)-methanone]	> 800 mg/kg	++ (stimulation of 50% to 100%)	–	–
CCOC(=O)Nc1ccc(N2CCC(C)CC2)c(C(=O)c2ccc(Cl)cc2)c1 [Example 3, [2-(4-methyl-1-piperidinyl)-5-(N-ethoxycarbonyl-amino)-phenyl]-(4-chlorophenyl)-methanone]	> 800 mg/kg	++ (stimulation of 50% to 100%)	–	–
Nc1ccc(N2CCCCC2)c(C(=O)c2ccc(Cl)cc2)c1 [Example 12]	> 800 mg/kg	+ (stimulation of 0 to 50%)	–	–
CC(C)(C)C1CCN(c2ccc(N)cc2C(=O)c2ccc(Cl)cc2)CC1 [Example 31]	> 800 mg/kg	–	–	–
Cc1cc(C(=O)c2cc(N)ccc2N2CCC(C)CC2)cc(C)c1C [Example 29]	> 800 mg/kg	+ (stimulation of 0 to 50%)	–	–
Cc1ccc(C(=O)c2cc(N)ccc2N2CCC(C)CC2)c(C)c1 [Example 16]	–	++ (stimulation of 50% to 100%)	750 mg/kg	–
COc1ccc(C(=O)c2cc(N)ccc2N2CCC(C)CC2)cc1 [Example 23]	> 800 mg/kg	++ (stimulation of 50% to 100%)	–	–
CC1CCN(c2ccc(N)cc2C(=O)c2ccc(Cl)cc2)CC1 [Example 2, [2-(4-methyl-1-piperidinyl)-5-aminophenyl]-(4-chlorophenyl)-methanone]	–	+++ (stimulation greater than 100%)	1300 mg/kg	reduction by half
COc1ccc(C(=O)c2ccccc2N2CCC(C)CC2)cc1 [Example 24]	> 800 mg/kg	+ (stimulation of 0 to 50%)	–	–
CC1CC(C)CN(c2ccc(N)cc2C(=O)c2ccc(Cl)cc2)C1 (centres unmarked) [Example 19]	> 800 mg/kg	++ (stimulation of 50% to 100%)	–	–
CC1CCN(c2ccccc2C(=O)c2ccc(Cl)cc2)CC1 [Example 21]	–	–	1800 mg/kg	–
COc1ccc(C(=O)c2cc(N)ccc2N2CCC(C)CC2)cc1OC [Example 9]	> 800 mg/kg	+ (stimulation of 0 to 50%)	–	–
CC1CCCCN1c1ccc(N)cc1C(=O)c1ccc(Cl)cc1 (centres unmarked) [Example 20]	> 800 mg/kg	+++ (stimulation greater than 100%)	–	–
CC1CCCN(c2ccc(N)cc2C(=O)c2ccc(Cl)cc2)C1 (centres unmarked) [Example 14]	–	++ (stimulation of 50% to 100%)	–	–
CC1CCN(c2ccc(N)cc2C(=O)c2ccc(F)cc2)CC1 [Example 17]	> 800 mg/kg	+ (stimulation of 0 to 50%)	–	–
CNc1ccc(N2CCC(C)CC2)c(C(=O)c2ccc(Cl)cc2)c1 [Example 6, [2-(4-methyl-1-piperidinyl)-5-methylamino-phenyl]-(4-chlorophenyl)methanone]	> 800 mg/kg	+ (stimulation of 0 to 50%)	–	–
CC1CCN(c2ccc(N)cc2C(=O)c2ccc(Br)cc2)CC1 [Example 30]	> 800 mg/kg	–	–	–
CC1CCN(c2ccc(N)cc2C(=O)c2ccc(Cl)c(Cl)c2)CC1 [Example 28]	> 800 mg/kg	++ (stimulation of 50% to 100%)	–	–
CC1CCN(c2ccccc2C(=O)c2ccccc2)CC1 [Example 4, [2-(4-methyl-1-piperidinyl)-phenyl]-phenyl-methanone]	> 800 mg/kg	–	–	–
